Laboratory results from patent US7786141B2 (Vertex Pharmaceuticals Incorporated, priority 2004, dated 2010).
Like-named read-outs stand apart in the source and are kept apart here.

Assays:
M1 muscarinic receptor = target: T1, M1 muscarinic receptor (Homo sapiens, UniProt P11229); test: Functional mobilization of intracellular calcium (FLIPR) in M1-CHO cells; format: cell-based
T1 construct: expressed in transfected cells; host or cells: CHO (M1-CHO)
T1 sequence (P11229 1-460): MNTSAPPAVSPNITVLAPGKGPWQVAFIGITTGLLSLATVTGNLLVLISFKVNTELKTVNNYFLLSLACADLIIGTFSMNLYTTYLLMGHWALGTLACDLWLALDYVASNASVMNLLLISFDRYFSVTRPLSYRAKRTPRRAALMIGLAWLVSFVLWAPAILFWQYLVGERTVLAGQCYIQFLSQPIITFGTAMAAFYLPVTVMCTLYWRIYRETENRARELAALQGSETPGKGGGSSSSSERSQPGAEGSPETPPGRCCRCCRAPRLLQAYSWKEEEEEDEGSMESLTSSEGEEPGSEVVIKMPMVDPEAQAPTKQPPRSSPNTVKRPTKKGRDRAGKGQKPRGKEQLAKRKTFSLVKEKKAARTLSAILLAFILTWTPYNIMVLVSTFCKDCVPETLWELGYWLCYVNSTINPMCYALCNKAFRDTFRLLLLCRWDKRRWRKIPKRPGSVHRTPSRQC
How it was run: (§1)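 Steps: seed M1- or M4-CHO cells 18-24 hrs ahead; load calcium dye with 1 mM probenecid; add test compound (0.5% DMSO final), either alone for agonism or 15 min before EC80 carbachol for inhibition; record FLIPR fluorescence for 60 sec.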

M4 muscarinic receptor = target: T2, M4 muscarinic receptor (Homo sapiens, UniProt P08173); test: Functional mobilization of intracellular calcium (FLIPR) in M4-CHO cells; format: cell-based
T2 construct: expressed in transfected cells; host or cells: CHO (M4-CHO)
T2 sequence (P08173 1-479): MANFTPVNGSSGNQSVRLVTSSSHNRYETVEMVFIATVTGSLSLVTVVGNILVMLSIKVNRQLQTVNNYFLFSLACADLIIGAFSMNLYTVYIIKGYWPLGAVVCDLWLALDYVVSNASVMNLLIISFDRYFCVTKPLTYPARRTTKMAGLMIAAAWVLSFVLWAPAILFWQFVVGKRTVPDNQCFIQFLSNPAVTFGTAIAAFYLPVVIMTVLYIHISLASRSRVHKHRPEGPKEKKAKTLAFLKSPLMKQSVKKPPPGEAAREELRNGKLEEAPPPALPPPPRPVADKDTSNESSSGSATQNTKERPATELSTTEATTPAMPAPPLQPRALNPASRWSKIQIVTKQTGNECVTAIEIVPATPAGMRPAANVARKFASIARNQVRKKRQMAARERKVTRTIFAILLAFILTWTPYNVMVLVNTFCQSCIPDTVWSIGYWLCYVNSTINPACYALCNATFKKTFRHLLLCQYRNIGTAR
How it was run: as §1

[1] = M1 receptor, calcium mobilization
[2] = M1 receptor, calcium mobilization, read-out: M1 Efficacy
[3] = M4 receptor, calcium mobilization
[4] = M4 receptor, calcium mobilization, read-out: M4 Efficacy
[5] = Table 4, 100% efficacy is the maximum response obtained with the Carbachol control
[6] = Table 4, modulating M1 receptor
[7] = Table 4, modulating M4 receptor
[8] = Table 4, M1 receptor, calcium mobilization (FLIPR)
[9] = Table 4, M4 receptor, calcium mobilization (FLIPR)
[10] = M1-CHO cells, calcium mobilization (FLIPR)
[11] = M1-CHO cells, calcium mobilization (FLIPR), read-out: M1 Efficacy
[12] = M4-CHO cells, calcium mobilization (FLIPR)
[13] = M4-CHO cells, calcium mobilization (FLIPR), read-out: M4 Efficacy

Compound | M1 Activity (M1 muscarinic receptor; [1]) | Emax (M1 muscarinic receptor; [2]) | M4 Activity (M4 muscarinic receptor; [3]) | Emax (M4 muscarinic receptor; [4]) | Emax (M1 muscarinic receptor; [5]) | M1 Activity (M1 muscarinic receptor; [6]) | Emax (M4 muscarinic receptor; [5]) | M4 Activity (M4 muscarinic receptor; [7]) | also measured
CCCNC(=O)N1C2CCC1CC(N1CCC3(CC1)COc1ccc(F)cc13)C2 (stereo not drawn) [compound 231] | x (activity was measured to be greater than 1.0 μM) | 65 to 85% | x (activity was measured to be greater than 1.0 μM) | > 85% |  |  |  |  | 
C[C@H](O)CC(=O)N1CCC(N2CCC3(CC2)CN(C(=O)N(C)C)c2ccc(F)cc23)CC1 [compound 662] |  |  |  |  | 25 to 100% | x (activity was measured to be greater than 5.0 μM) | 25 to 100% | xx (activity was measured to be between 2.0 μM and 5.0 μM) | 
CCOC(=O)N1C2CCC1CC(N1CCC3(CC1)C(=O)N(C)c1ccccc13)C2 (stereo not drawn) [compound 149] | xxx (activity was measured to be less than 0.1 μM) | > 85% | x (activity was measured to be greater than 1.0 μM) | > 85% |  |  |  |  | 
CCOC(=O)N1CCC(N2CCC3(CC2)CN(C(C)=O)c2c(-c4ccncc4)cccc23)CC1 [compound 677] |  |  |  |  | 25 to 100% | x (activity was measured to be greater than 5.0 μM) | < 25% | x (activity was measured to be greater than 5.0 μM) | 
CCOC(=O)N1C2CCC1CC(N1CCC3(CC[C@H](N4CCCC4=O)c4ccccc43)CC1)C2 (stereo partly drawn) [compound 1014] |  |  |  |  | 25 to 100% |  | 25 to 100% |  | M1 Activity (M1 muscarinic receptor; [8]): xxx (activity was measured to be less than 2.0 μM); M4 Activity (M4 muscarinic receptor; [9]): xxx (activity was measured to be less than 2.0 μM)
CCCOC(=O)N1C2CCC1CC(N1CCC3(CC1)CN(C(C)=O)c1ccccc13)C2 (stereo not drawn) [compound 507] |  |  |  |  | 25 to 100% | xxx (activity was measured to be less than 2.0 μM) | 25 to 100% | xxx (activity was measured to be less than 2.0 μM) | 
CCOC(=O)N1CCC(N2CCC3(CC2)CN(C(=O)c2cccc(F)c2)c2ccc(F)cc23)CC1 [compound 410] |  |  |  |  |  |  |  |  | EC50 (M1 muscarinic receptor; [10]): 100 to 1000 nM; Emax (M1 muscarinic receptor; [11]): < 65%; EC50 (M4 muscarinic receptor; [12]): 100 to 1000 nM; Emax (M4 muscarinic receptor; [13]): < 65%
CC(C)COC(=O)N1C2CCC1CC(N1CCC3(CC1)COc1ccc(F)cc13)C2 (stereo not drawn) [compound 160] | xxx (activity was measured to be less than 0.1 μM) | > 85% | xx (activity was measured to be between 0.1 μM and 1.0 μM) | > 85% |  |  |  |  | 
CCOC(=O)N1CCC(N2CCC3(CC2)CN(c2ccc(OC)cc2)c2ccc(F)cc23)CC1 [compound 908] |  |  |  |  | 25 to 100% |  | 25 to 100% |  | M1 Activity (M1 muscarinic receptor; [8]): xxx (activity was measured to be less than 2.0 μM); M4 Activity (M4 muscarinic receptor; [9]): xxx (activity was measured to be less than 2.0 μM)
CCOC(=O)N1CCC(CN2CCC3(CC2)COc2ccc(F)cc23)CC1 [compound 107] | xxx (activity was measured to be less than 0.1 μM) | 65 to 85% | x (activity was measured to be greater than 1.0 μM) | < 65% |  |  |  |  | 
Cc1ccc2c(c1)C1(CCN(CC3CC4CCC3O4)CC1)CN2 (stereo not drawn) [compound 372] | xxx (activity was measured to be less than 0.1 μM) | 65 to 85% | xx (activity was measured to be between 0.1 μM and 1.0 μM) | > 85% |  |  |  |  | 
CC(=O)N[C@H]1CC2(CCN(CC(=O)N3CCCC3)CC2)c2ccccc21 [compound 671] |  |  |  |  | < 25% | x (activity was measured to be greater than 5.0 μM) | < 25% | x (activity was measured to be greater than 5.0 μM) | 
CCOC(=O)N1C2CCC1CC(N1CCC3(CC[C@H](NC(=O)C4CC4)c4ccccc43)CC1)C2 (stereo partly drawn) [compound 664] |  |  |  |  | 25 to 100% | xxx (activity was measured to be less than 2.0 μM) | 25 to 100% | xxx (activity was measured to be less than 2.0 μM) | 
CCOC(=O)N1C2CCC1CC(N1CCC3(CC1)C(=O)Nc1ccccc13)C2 (stereo not drawn) [compound 199] | xx (activity was measured to be between 0.1 μM and 1.0 μM) | 65 to 85% | x (activity was measured to be greater than 1.0 μM) | < 65% |  |  |  |  | 
CS(=O)(=O)N[C@H]1CCC2(CCN(CC3CCCCC3)CC2)c2ccccc21 [compound 773] |  |  |  |  | 25 to 100% | xxx (activity was measured to be less than 2.0 μM) | 25 to 100% | xxx (activity was measured to be less than 2.0 μM) | 
CCOC(=O)N1CCC(N2CCC3(CC2)CN(C(=O)O[C@H]2CCOC2)c2ccc(F)cc23)CC1 [compound 428] |  |  |  |  |  |  |  |  | EC50 (M1 muscarinic receptor; [10]): 100 to 1000 nM; Emax (M1 muscarinic receptor; [11]): < 65%; EC50 (M4 muscarinic receptor; [12]): > 1000 nM; Emax (M4 muscarinic receptor; [13]): < 65%
CN(C)C(=O)N1CC2(CCN(C3CCN(c4ccccc4F)CC3)CC2)c2cc(F)ccc21 [compound 711] |  |  |  |  | 25 to 100% | xx (activity was measured to be between 2.0 μM and 5.0 μM) | < 25% | x (activity was measured to be greater than 5.0 μM) | 
COCCOC(=O)N1CC2(CCN(C3CC4CCC(C3)N4C(=O)OCCOC)CC2)c2cc(F)ccc21 (stereo not drawn) [compound 117] | xxx (activity was measured to be less than 0.1 μM) | 65 to 85% | xx (activity was measured to be between 0.1 μM and 1.0 μM) | < 65% |  |  |  |  | 
CCOC(=O)N1CCC(N2CCC3(CC2)CN(C(C)=O)c2c(-c4ccoc4)cccc23)CC1 [compound 559] |  |  |  |  | 25 to 100% | xxx (activity was measured to be less than 2.0 μM) | 25 to 100% | x (activity was measured to be greater than 5.0 μM) | 
CCOC(=O)N1CCC(CN2CCC3(CC2)CN(C(C)=O)c2ccc(C(F)(F)F)cc23)CC1 [compound 994] |  |  |  |  | 25 to 100% |  | 25 to 100% |  | M1 Activity (M1 muscarinic receptor; [8]): xxx (activity was measured to be less than 2.0 μM); M4 Activity (M4 muscarinic receptor; [9]): xxx (activity was measured to be less than 2.0 μM)
CCOC(=O)N1C2CCC1CC(CN1CCC3(CC1)CNc1ccc(F)cc13)C2 (stereo not drawn) [compound 368] | xxx (activity was measured to be less than 0.1 μM) | < 65% | xx (activity was measured to be between 0.1 μM and 1.0 μM) | < 65% |  |  |  |  | 
CN(C)C(=O)N1CC2(CCN(C3CCN(C(=O)O[C@H]4CCOC4)CC3)CC2)c2cc(F)ccc21 [compound 120] | xx (activity was measured to be between 0.1 μM and 1.0 μM) | < 65% | x (activity was measured to be greater than 1.0 μM) | < 65% |  |  |  |  | 
C#CCCOC(=O)N1CC[C@@H](CN2CCC3(CC2)CN(C(C)=O)c2ccccc23)C1 [compound 1013] |  |  |  |  | < 25% |  | < 25% |  | M1 Activity (M1 muscarinic receptor; [8]): x (activity was measured to be greater than 5.0 μM); M4 Activity (M4 muscarinic receptor; [9]): x (activity was measured to be greater than 5.0 μM)
CC(=O)N1CC2(CCN(C3CC4CCC(C3)N4C(=O)OC(C)C)CC2)c2ccccc21 (stereo not drawn) [compound 742] |  |  |  |  | 25 to 100% | xxx (activity was measured to be less than 2.0 μM) | 25 to 100% | xxx (activity was measured to be less than 2.0 μM) | 
CN(C)C(=O)N1CC2(CCN(C3CCN(C(=O)CCC#N)CC3)CC2)c2cc(F)ccc21 [compound 492] |  |  |  |  | 25 to 100% | x (activity was measured to be greater than 5.0 μM) | < 25% | x (activity was measured to be greater than 5.0 μM) | 
CCOC(=O)N1C2CCC1CC(N1CCC3(CC1)CN(C(=O)c1ccc(F)cc1)c1ccc(F)cc13)C2 (stereo not drawn) [compound 222] | x (activity was measured to be greater than 1.0 μM) | < 65% | x (activity was measured to be greater than 1.0 μM) | < 65% |  |  |  |  | 
CCOC(=O)N1CCC(N2CCC3(CC2)CN(C(C)=O)c2ccccc23)CC1 [compound 626] |  |  |  |  | 25 to 100% | xxx (activity was measured to be less than 2.0 μM) | 25 to 100% | xxx (activity was measured to be less than 2.0 μM) | 
